Assay results published in article PMC4492764, “Evaluation of biomarkers for in vitro prediction of drug-induced nephrotoxicity: comparison of HK-2, immortalized human proximal tubule epithelial, and primary cultures of human proximal tubular cells” (Pharmacology Research & Perspectives, 2015).
“Also recorded” adds a separate entry of the source.

Columns and labels:
Assay type in all cases: cell-based, human
NGAL mRNA [1] = assay: NGAL mRNA qRT-PCR in HK-2 cells; parameters: key to Upregulation of NGAL HK-2 R: +: statistically significant increase; −: no significant increase; details: mRNA levels; 72 h time point
Description: (§1) HK-2 cells (ATCC CRL-2190; Manassas, VA) were maintained in DMEM/F12 (Life Technologies; Sydney, NSW, Australia) supplemented with 5 μg/mL insulin, 5 μg/mL transferrin, 5 ng/mL sodium selenite (ITS; Roche; […] (passage 2) and culture kits were purchased from Lonza. […] were maintained in Renal Epithelial Cell BulletKitTM (CC-3190, Lonza) at 37°C and 5% CO2 atmosphere. Cells were passaged to 96-well plates with a density of 4000 cells/well. After 24 h culture, compounds with different concentration series were added into each well and incubated for 4, 24, 48, and 72 h. HK-2 and […] were treated with compounds for 4, 24, 48, and 72 h, then the cells were lysed and the RNA reverse transcribed with the TaqMan® Gene Expression Cells-to-CTTM Kit (Life Technologies) according to the manufacturer's instructions. […] Hs00273334_m1), Lcn2 (NGAL; Hs01008571_m1), and Csf1 (M-CSF; Hs00174164_m1). All probes span an exon-exon junction. The real-time quantitative reverse transcription PCR (qRT-PCR) was performed in a 10 μl final reaction mixture using a ViiA 7TM system (Applied Biosystems®, Sydney, NSW, Australia) based on the following thermo cycling conditions: 10 min at 95°C for one cycle, 15 sec at 95°C, 60 sec at 60°C for 40 cycles. The ViiA 7TM software was used for data analysis with Hprt1 expression used for normalization. All assays were performed at least three times, with at least two technical replicates in each assay.

NGAL [2] = assay: NGAL protein ELISA in hRPTECs; parameters: key to Upregulation of NGAL hRPTECs P: +: statistically significant increase; −: no significant increase; details: for NGAL protein in hRPTEC culture medium: 24 h
Description: (§2) HK-2 cells (ATCC CRL-2190; Manassas, VA) were maintained in DMEM/F12 (Life Technologies; Sydney, NSW, Australia) supplemented with 5 μg/mL insulin, 5 μg/mL transferrin, 5 ng/mL sodium selenite (ITS; Roche; […] (passage 2) and culture kits were purchased from Lonza. […] were maintained in Renal Epithelial Cell BulletKitTM (CC-3190, Lonza) at 37°C and 5% CO2 atmosphere. Cells were passaged to 96-well plates with a density of 4000 cells/well. After 24 h culture, compounds with different concentration series were added into each well and incubated for 4, 24, 48, and 72 h. KIM-1 (DY1750), NGAL (DY1757), and M-CSF (DY216) Duo-Set® ELISA kits were purchased from R&D systems (Minneapolis, MN). Sandwich-ELISA experiments were conducted following the manufacturer's instructions with slight modifications. A 96-well microplate (MaxiSorp®, Nunc, Thermo Scientific, NSW, Australia) was coated with 100 μL of capture antibodies (diluted 1:200 in PBS) and incubated overnight. The plate was then washed twice with washing buffer (0.05% Tween 20 in PBS, pH 7.4) and blocked by adding 300 μL of blocking buffer (1% bovine serum albumin (BSA) in PBS) for 1 h at room temperature. After washing two times with PBS, 100 μL of samples (cell culture media or cell lysates) or standards were then added to each well and incubated for 2 h at room temperature. The biotinylated detection antibodies were then diluted in blocking buffer, added to each well and incubated for 2 h. Horseradish peroxidase (HRP)-labeled streptavidin (100 μL) was then added to bind to detection antibodies. To each well, 100 μL of substrate solution (1:1 mixture of H2O2 and tetramethylbenzidine) was added and incubated for 20 min before reaction termination with 50 μL of stop solution (2N H2SO4). The optical density of each well was measured at 450 nm using a POLARstar Omega plate reader (BMG Labtech). All assays were performed at least three times, with at least two technical replicates in each assay.

NGAL [3] = assay: NGAL protein ELISA in HK-2 cells; parameters: key: +: statistically significant increase; −: no significant increase; details: protein levels in culture medium; 72 h time point
Description: as §2

[4] = MTT cytotoxicity assay in hRPTECs; details: human, hRPTECs (passage 2); 72 h incubation; Mean ± Standard deviation, n = 3
Description: (§3) For the MTT assay, the medium was then removed, the dried crystals were resuspended in 60 μL of Dimethyl sulfoxide (DMSO), and the absorbance was read at 570 nm. For the resazurin assay, the fluorescence intensity was read using a PolarStar Omega plate reader (BMG Labtech; Mornington VIC, Australia) at excitation/emission 560/590 nm. All assays were performed at least three times. […] La Jolla, CA). Both MTT and resazurin assays were performed three times, with two technical replicates in each assay.

NGAL mRNA [5] = assay: NGAL mRNA qRT-PCR in hRPTECs; parameters: key to Upregulation of NGAL hRPTECs R: +: statistically significant increase; −: no significant increase
Description: as §1

[6] = MTT cytotoxicity assay in HK-2 cells; details: human, HK-2 cells; 72 h incubation; Mean ± Standard deviation, n = 3
Description: as §3

KIM-1 [7] = assay: KIM-1 protein ELISA in HK-2 cells; parameters: key: +: statistically significant increase; −: no significant increase; details: protein levels in culture medium; 72 h time point
Description: as §2

KIM-1 mRNA [8] = assay: KIM-1 mRNA qRT-PCR in HK-2 cells; parameters: key to Upregulation of KIM-1 HK-2 R: +: statistically significant increase; −: no significant increase
Description: as §1

[9] = Resazurin cytotoxicity assay in hRPTECs; details: human, hRPTECs (passage 2); 72 h incubation; Mean ± Standard deviation, n = 3
Description: as §3

KIM-1 mRNA [10] = assay: KIM-1 mRNA qRT-PCR in hRPTECs; parameters: key to Upregulation of KIM-1 hRPTECs R: +: statistically significant increase; −: no significant increase
Description: as §1

[11] = Resazurin cytotoxicity assay in HK-2 cells; details: human, HK-2 cells; 72 h incubation; Mean ± Standard deviation, n = 3
Description: as §3

KIM-1 [12] = assay: KIM-1 protein ELISA in hRPTECs; parameters: key to Upregulation of KIM-1 hRPTECs P: +: statistically significant increase; −: no significant increase
Description: as §2

M-CSF mRNA = M-CSF mRNA qRT-PCR in hRPTECs; details: 72 h (Fig.4C)
Description: Hs00273334_m1), Lcn2 (NGAL; Hs01008571_m1), and Csf1 (M-CSF; Hs00174164_m1). All probes span an exon-exon junction. The real-time quantitative reverse transcription PCR (qRT-PCR) was performed in a 10 μl final reaction mixture using a ViiA 7TM system (Applied Biosystems®, Sydney, NSW, Australia) based on the following thermo cycling conditions: 10 min at 95°C for one cycle, 15 sec at 95°C, 60 sec at 60°C for 40 cycles. The ViiA 7TM software was used for data analysis with Hprt1 expression used for normalization. All assays were performed at least three times, with at least two technical replicates in each assay.

[13] = protein levels in culture medium, 72 h time point

| Upregulation of NGAL HK-2 R (NGAL mRNA [1]) | NGAL protein in hRPTEC culture medium (NGAL [2]) | Upregulation of NGAL hRPTECs P (NGAL [2]; [13]) | Upregulation of NGAL HK-2 P (NGAL [3]) | Upregulation of NGAL hRPTECs R (NGAL mRNA [5]; mRNA levels, 72 h time point) | Upregulation of KIM-1 HK-2 P (KIM-1 [7]) | Upregulation of KIM-1 HK-2 R (KIM-1 mRNA [8]; mRNA levels, 72 h time point) | Upregulation of KIM-1 hRPTECs R (KIM-1 mRNA [10]; mRNA levels, 72 h time point) | KIM-1 protein upregulation in hRPTECs (KIM-1 [12]; 4 h, culture medium (Fig. S5A)) | Upregulation of KIM-1 hRPTECs P (KIM-1 [12]; [13]) | KIM-1 mRNA transcription level in HK-2 cells (KIM-1 mRNA [8]; 72 h, P < 0.005) | Compound | CC50 at 72 h [4] [µM] | CC50 at 72 h [6] [µM] | CC50 at 72 h [9] [µM] | CC50 at 72 h [11] [µM] | NGAL mRNA levels in hRPTECs (NGAL mRNA [5]; 72 h exposure, 1 μmol/L (high dose), P < 0.001) | M-CSF mRNA levels in hRPTECs (M-CSF mRNA) | KIM-1 mRNA in hRPTECs (KIM-1 mRNA [10]; 72 h, high dose) |
| --- | --- | --- | --- | --- | --- | --- | --- | --- | --- | --- | --- | --- | --- | --- | --- | --- | --- | --- |
| − | increases | + | − | − | − | − | − | significant upregulation | + |  | C[C@@H]1[C@H](O)[C@@H](C)/C=C/C=C/C=C/C=C/C=C/C=C/C=C/[C@H](O[C@@H]2O[C@H](C)[C@@H](O)[C@H](N)[C@@H]2O)C[C@@H]2O[C@](O)(C[C@@H](O)C[C@@H](O)[C@H](O)CC[C@@H](O)C[C@@H](O)CC(=O)O[C@H]1C)C[C@H](O)[C@H]2C(=O)O [AmB, amphotericin B] | > 50 | > 50 | 6 ± 1 | 20 ± 3 |  |  |  |
|  | increases |  |  |  |  |  |  |  |  | increased | COc1cccc2c1C(=O)c1c(O)c3c(c(O)c1C2=O)C[C@@](O)(C(=O)CO)C[C@@H]3O[C@H]1C[C@H](N)[C@H](O)[C@H](C)O1 [Doxorubicin, doxorubicin] | > 50 | > 50 | 5.2 ± 1 | 2.1 ± 1 | kept rising; also recorded: significant induction | significant results; also recorded: significant induction | stimulation; also recorded: significant induction |
